Laboratory results as given in patent US20070249690A1, “N-[2-(4-Pyridinyl)Ethyl]Benzamide Derivatives as Fungicides” (priority 2004, published 2007).

Legend:
[1] = system: Botrytis cinerea; test: In vivo test on Botrytis cinerea (cucumber grey mould), cucumber plants; conditions: 330 ppm; for effectiveness on Botrytis cinerea: comparison compounds of WO 01/11965
Experimental: The active ingredient tested is prepared by potter homogenisation in a concentrated suspension type formulation at 100 g/l. This suspension is then diluted with water to obtain the desired active material concentration.
Cucumber plants (Marketer variety) in starter cups, sown on a 50/50 peat soil-pozzolana substrate and grown at 18-20° C., are treated at the cotyledon Z11 stage by spraying with the aqueous suspension described above. Plants, used as controls, are treated with an aqueous solution not containing the active material.
After 24 hours, the plants are contaminated by depositing drops of an aqueous suspension of Botrytis cinerea spores (150,000 spores per ml) on upper surface of the leaves. The spores are collected from a 15-day-old culture and are suspended in a nutrient solution composed of: • 20 g/L of gelatin • 50 g/L of cane sugar • 2 g/L of NH4NO3 • 1 g/L of KH2PO4
The contaminated cucumber plants are settled for 5/7 days in a climatic room at 15-11° C. (day/night) and at 80% relative humidity.
Grading is carried out 5/7 days after the contamination, in comparison with the control plants. Under these conditions, good (at least 50%) or total protection is observed at a dose of 330 ppm with the following compounds: 3.

[2] = system: Peronospora parasitica; test: Efficacy against Peronospora parasitica; assay type: in vivo; conditions: 330 ppm, comparison compound of WO 01/11965
[3] = system: Alternaria brassicae; test: In vivo test on Alternaria brassicae (leaf spot of crucifers), radish plants; conditions: 330 ppm, comparison compounds of WO 01/11965
Experimental: The active ingredient tested is prepared by potter homogenisation in a concentrated suspension type formulation at 100 g/l. […] Radish plants (Pernot variety) in starter cups, sown on a 50/50 peat soil-pozzolana substrate and grown at 18-20° C., are treated at the cotyledon stage by spraying with the aqueous suspension described above. Plants, used as controls, are treated with an aqueous solution not containing the active material. After 24 hours, the plants are contaminated by spraying them with an aqueous suspension of Alternaria brassicae spores (40,000 spores per cm^3). The spores are collected from a 12 to 13 days-old culture. The contaminated radish plants are incubated for 6-7 days at about 18° C., under a humid atmosphere. Grading is carried out 6 to 7 days after the contamination, in comparison with the control plants. Under these conditions, good (at least 50%) or total protection is observed at a dose of 330 ppm with the following compounds: 1, 2, 3 and 4.

SMILES | protection (good, at least 50%, or total) ([1]; preventive spray on cucumber plants, grading 5/7 days after contamination, versus control plants) | effectiveness on Botrytis cinerea [1] | efficacy against Peronospora parasitica [2] | effectiveness on Alternaria brassicae [3]
O=C(NCCc1cc(F)ncc1F)c1ccccc1C(F)(F)F [Compound 3] | at least 50% |  |  | 
O=C(Cc1cccs1)NCc1ncc(C(F)(F)F)cc1Cl [compound 101, N-{[3-chloro-5-(trifluoromethyl)-2-pyridinyl]methyl}-5-thienylacetamide] |  | no efficacy | no efficacy | poor efficacy
CCNC(=O)C(Cc1ncc(C(F)(F)F)cc1Cl)NC(=O)c1ccccc1 (stereo not shown) [compound 304, N-{1-ethylcarbamoyl-2-[3-chloro-5-(trifluoromethyl)-2-pyridinyl]-ethyl}-benzamide] |  | zero effectiveness |  | 
CCNC(=O)C(Cc1ncc(C(F)(F)F)cc1Cl)NC(=O)c1ccc(Cl)cc1 (stereo not shown) [compound 306, N-{1-ethylcarbamoyl-2-[3-chloro-5-(trifluoromethyl)-2-pyridinyl]ethyl}-4-chlorobenzamide] |  | zero effectiveness |  | 
CCNC(=O)C(Cc1ncc(C(F)(F)F)cc1Cl)NC(=O)c1cccc([N+](=O)[O-])c1 (stereo not shown) [compound 307, N-{1-ethylcarbamoyl-2-[3-chloro-5-(trifluoromethyl)-2-pyridinyl]ethyl}-3-nitrobenzamide] |  | zero effectiveness |  | poor effectiveness
CCNC(=O)C(Cc1ncc(C(F)(F)F)cc1Cl)NC(=O)c1ccccc1Br (stereo not shown) [compound 310, N-{1-ethylcarbamoyl-2-[3-chloro-5-(trifluoromethyl)-2-pyridinyl]ethyl}-2-bromobenzamide] |  | zero effectiveness |  | 
CNC(=O)C(Cc1ncc(C(F)(F)F)cc1Cl)NC(=O)c1ccccc1 (stereo not shown) [compound 314, N-{1-methylcarbamoyl-2-[3-chloro-5-(trifluoromethyl)-2-pyridinyl]ethyl}-benzamide] |  | zero effectiveness |  | 
CNC(=O)C(Cc1ncc(C(F)(F)F)cc1Cl)NC(=O)c1ccc(OC)cc1 (stereo not shown) [compound 315, N-{1-methylcarbamoyl-2-[3-chloro-5-(trifluoromethyl)-2-pyridinyl]ethyl}-4-methoxybenzamide] |  | zero effectiveness |  | 
CNC(=O)C(Cc1ncc(C(F)(F)F)cc1Cl)NC(=O)c1ccc(-c2ccccc2)cc1 (stereo not shown) [compound 316, N-{1-methylcarbamoyl-2-[3-chloro-5-(trifluoromethyl)-2-pyridinyl]-ethyl}-4-phenylbenzamide] |  | zero effectiveness |  | poor effectiveness
